This is an account of results in patent publication US11504364B2, “Inhibitors of fibroblast activation protein” (Praxis Biotech LLC, priority 2018, dated 2022).

Where two headings read alike, the source gives them in different places. Where only a bound is given, the exact number is not on record here.

The target in data set [1] is recombinant human DPPIV (rhDPPIV) (Homo sapiens (Human), UniProt P27487). Briefly: DPPIV enzymatic activity assay. The settings on record: Table 3B. The class given is biochemical.
The target in data set [2] is recombinant human FAPα (rhFAPα) (Homo sapiens (Human), UniProt Q12884). The data set is described as follows: FAPα enzymatic exopeptidase (dipeptidase) activity assay, Z-Gly-Pro-AMC. The data set is classed as biochemical. The settings on record: for inhibition at 1 µM / rhFAPα (% exo inh @ 1 μM): 1 μM test compound, exopeptidase; for inhibition at 1 µM: read-out: rhFAPα (% exo inh @ 1 μM).

The target in data set [3] is T1, recombinant human DPP9 (rhDPP9) (Homo sapiens (Human), UniProt Q86TI2). Briefly: Inhibition of DPP9 activity, 10 ng rhDPP9, H-Gly-Pro-AMC. The class given is biochemical. The settings on record: Table 3B.
The target of data set [4] is T1, recombinant human DPP9 (rhDPP9). The data set is described as follows: DPP9 enzymatic activity assay. The class given is biochemical. The note with it: Table 3A.
The subject of data set [5] is human AML cell line MV4-11. The data set is described as follows: Cytotoxicity assay in human leukemia cell lines (Cell-Titer Glo).
The target of data set [6] is circulating FAPα from hamster plasma (Mesocricetus auratus, UniProt A0ABM2XF29). The data set is described as follows: Ex vivo inhibition of circulating FAPα activity in hamster plasma (PRXS-AMC). The settings on record: PRXS-AMC substrate. The data set is classed as biochemical, Golden Syrian hamster. The procedure: Male Golden Syrian hamsters were provided by National Laboratory Animal Center (NLAC) in Taiwan. The animals were maintained in a hygienic environment under controlled temperature (20-24° C.) and humidity (50%-80%) with 12 hours light/dark cycles. Free access to standard lab diet [MFG (Oriental Yeast Co., Ltd. Japan)] and autoclaved tap water were granted. All aspects of this work including housing, experimentation and disposal of animals were performed in general accordance with the “Guide for the Care and Use of Laboratory Animals: Eighth Edition” (National Academies Press, Washington, D.C., 2011). In addition, the animal care and use protocol was reviewed and approved by the IACUC at Pharmacology Discovery Services Taiwan, Ltd. Immediately after the sacrifice of hamsters, blood samples were collected via terminal cardiac puncture in tubes coated with EDTA-K2, mixed gently, then kept on ice and centrifuged at 2,500×g for 15 minutes at 4° C. After plasma separation, samples were stored at −80° C. in aliquots of […]. To assay exemplary compounds in hamster plasma, a similar protocol as described for human plasma was performed diluting thawed plasma 1:2 in assay buffer. […] AMC release was detected measuring fluorescence at an excitation/emission wavelength of 380/460 nm using a Multifunction Microplate Reader. […]

Data set [7] addresses recombinant human PREP (rhPREP) (Homo sapiens (Human), UniProt P48147). The data set is described as follows: PREP enzymatic activity assay. The data set is classed as biochemical. The note with it: Table 3B.
Data set [8] deals with recombinant mouse FAPα (rmFAPα) (Mus musculus (Mouse), UniProt P97321). Briefly: FAPα enzymatic exopeptidase (dipeptidase) activity assay, Z-Gly-Pro-AMC. The class given is biochemical. The note with it: 1 μM test compound.
The target in data set [9] is recombinant mouse PREP (rmPREP) (Mus musculus (Mouse), UniProt Q9QUR6). Briefly: PREP enzymatic activity assay. The settings on record: Table 3A. The data set is classed as biochemical.
Data set [10] deals with recombinant mouse DPPIV (rmDPPIV) (Mus musculus (Mouse), UniProt P28843). The data set is described as follows: DPPIV enzymatic activity assay. The note with it: Table 3A. The data set is classed as biochemical.
The conditions of data set [11]: upon standing in pH 7.8; cyclization; cited from earlier work.
Setting [12] is: Homo sapiens, MV4-11, 48 h, read-out: MV4-11 viability IC50, μM.

recombinant human FAPα (rhFAPα), sequence (Q12884 whole entry): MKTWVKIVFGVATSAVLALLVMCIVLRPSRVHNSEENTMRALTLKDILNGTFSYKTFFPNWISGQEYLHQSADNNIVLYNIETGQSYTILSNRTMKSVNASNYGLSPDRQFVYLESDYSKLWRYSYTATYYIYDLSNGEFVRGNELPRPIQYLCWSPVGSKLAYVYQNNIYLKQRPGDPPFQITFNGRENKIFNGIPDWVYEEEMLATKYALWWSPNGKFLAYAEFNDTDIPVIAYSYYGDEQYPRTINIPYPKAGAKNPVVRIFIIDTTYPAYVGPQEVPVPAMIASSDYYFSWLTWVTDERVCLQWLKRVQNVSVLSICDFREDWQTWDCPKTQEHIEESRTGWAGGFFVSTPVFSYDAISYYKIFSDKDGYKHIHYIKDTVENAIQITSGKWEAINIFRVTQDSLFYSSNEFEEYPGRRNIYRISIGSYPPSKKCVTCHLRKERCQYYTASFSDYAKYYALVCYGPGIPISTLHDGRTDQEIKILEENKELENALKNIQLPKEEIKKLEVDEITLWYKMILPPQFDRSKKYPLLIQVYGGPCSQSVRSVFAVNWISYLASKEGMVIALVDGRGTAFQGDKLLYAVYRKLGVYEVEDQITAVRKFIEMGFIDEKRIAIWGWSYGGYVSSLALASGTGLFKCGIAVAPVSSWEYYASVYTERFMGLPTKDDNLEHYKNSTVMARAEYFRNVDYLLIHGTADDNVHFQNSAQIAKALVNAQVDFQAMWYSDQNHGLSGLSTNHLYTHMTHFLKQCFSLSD
recombinant human DPPIV (rhDPPIV), sequence (P27487 whole entry): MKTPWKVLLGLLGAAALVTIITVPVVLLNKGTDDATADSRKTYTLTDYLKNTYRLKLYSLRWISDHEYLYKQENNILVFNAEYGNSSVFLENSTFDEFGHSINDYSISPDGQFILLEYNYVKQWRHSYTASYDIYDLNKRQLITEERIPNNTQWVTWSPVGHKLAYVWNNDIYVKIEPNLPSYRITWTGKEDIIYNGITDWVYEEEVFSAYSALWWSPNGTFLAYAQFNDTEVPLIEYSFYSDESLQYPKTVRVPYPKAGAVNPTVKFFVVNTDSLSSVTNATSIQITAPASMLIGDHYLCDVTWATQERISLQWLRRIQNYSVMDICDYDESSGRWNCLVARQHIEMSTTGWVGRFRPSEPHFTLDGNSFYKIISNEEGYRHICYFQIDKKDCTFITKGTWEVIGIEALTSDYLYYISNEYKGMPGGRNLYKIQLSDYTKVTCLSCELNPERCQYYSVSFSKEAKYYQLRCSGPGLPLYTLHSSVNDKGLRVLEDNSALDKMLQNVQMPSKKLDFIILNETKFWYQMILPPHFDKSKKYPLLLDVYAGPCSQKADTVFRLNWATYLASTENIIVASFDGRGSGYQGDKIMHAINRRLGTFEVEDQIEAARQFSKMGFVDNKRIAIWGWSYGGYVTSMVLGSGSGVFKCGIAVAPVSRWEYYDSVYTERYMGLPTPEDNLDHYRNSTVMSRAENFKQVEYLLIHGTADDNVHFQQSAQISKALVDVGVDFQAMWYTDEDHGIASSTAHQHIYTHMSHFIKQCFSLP
T1 sequence (Q86TI2 whole entry): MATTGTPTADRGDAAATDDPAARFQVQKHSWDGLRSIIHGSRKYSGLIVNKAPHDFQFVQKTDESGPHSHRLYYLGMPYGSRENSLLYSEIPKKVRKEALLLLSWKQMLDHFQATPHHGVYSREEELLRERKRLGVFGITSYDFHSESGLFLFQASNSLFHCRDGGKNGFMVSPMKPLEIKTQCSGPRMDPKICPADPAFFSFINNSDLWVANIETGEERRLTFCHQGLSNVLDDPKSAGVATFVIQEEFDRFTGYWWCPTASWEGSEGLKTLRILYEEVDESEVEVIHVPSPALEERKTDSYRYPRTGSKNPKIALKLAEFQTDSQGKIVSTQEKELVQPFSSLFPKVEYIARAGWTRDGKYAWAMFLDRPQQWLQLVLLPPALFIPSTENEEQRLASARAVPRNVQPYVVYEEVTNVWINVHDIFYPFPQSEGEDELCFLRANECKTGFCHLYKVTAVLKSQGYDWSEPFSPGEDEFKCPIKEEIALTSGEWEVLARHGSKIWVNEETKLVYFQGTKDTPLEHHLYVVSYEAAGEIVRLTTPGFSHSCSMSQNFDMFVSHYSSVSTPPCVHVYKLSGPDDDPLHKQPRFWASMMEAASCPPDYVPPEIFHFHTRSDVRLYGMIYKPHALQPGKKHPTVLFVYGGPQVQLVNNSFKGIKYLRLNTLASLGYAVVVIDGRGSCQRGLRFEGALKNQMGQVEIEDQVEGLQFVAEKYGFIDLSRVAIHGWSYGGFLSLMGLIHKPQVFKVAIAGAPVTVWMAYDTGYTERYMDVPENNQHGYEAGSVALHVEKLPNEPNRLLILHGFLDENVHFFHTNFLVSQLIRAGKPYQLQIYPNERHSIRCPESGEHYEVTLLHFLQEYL
recombinant human PREP (rhPREP), sequence (P48147 whole entry): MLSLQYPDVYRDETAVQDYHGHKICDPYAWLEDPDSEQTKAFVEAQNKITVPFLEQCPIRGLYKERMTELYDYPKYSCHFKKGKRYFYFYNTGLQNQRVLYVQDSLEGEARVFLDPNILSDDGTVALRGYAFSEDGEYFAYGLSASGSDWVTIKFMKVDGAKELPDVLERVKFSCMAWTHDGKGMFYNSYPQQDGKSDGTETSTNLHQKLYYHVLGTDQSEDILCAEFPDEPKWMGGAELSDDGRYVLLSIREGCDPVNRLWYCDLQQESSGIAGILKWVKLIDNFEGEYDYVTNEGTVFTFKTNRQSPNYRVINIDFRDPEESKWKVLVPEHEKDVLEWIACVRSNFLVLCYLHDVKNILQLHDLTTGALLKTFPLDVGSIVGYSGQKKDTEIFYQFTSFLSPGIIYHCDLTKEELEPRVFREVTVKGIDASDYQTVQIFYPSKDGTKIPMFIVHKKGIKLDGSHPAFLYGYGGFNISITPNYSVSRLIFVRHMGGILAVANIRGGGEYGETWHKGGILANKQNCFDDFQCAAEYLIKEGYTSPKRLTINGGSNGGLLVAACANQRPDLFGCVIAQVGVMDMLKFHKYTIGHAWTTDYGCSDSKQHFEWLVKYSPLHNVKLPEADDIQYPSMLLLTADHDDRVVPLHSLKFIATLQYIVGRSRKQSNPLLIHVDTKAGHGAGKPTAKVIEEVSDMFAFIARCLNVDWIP
recombinant mouse FAPα (rmFAPα), sequence (P97321 whole entry): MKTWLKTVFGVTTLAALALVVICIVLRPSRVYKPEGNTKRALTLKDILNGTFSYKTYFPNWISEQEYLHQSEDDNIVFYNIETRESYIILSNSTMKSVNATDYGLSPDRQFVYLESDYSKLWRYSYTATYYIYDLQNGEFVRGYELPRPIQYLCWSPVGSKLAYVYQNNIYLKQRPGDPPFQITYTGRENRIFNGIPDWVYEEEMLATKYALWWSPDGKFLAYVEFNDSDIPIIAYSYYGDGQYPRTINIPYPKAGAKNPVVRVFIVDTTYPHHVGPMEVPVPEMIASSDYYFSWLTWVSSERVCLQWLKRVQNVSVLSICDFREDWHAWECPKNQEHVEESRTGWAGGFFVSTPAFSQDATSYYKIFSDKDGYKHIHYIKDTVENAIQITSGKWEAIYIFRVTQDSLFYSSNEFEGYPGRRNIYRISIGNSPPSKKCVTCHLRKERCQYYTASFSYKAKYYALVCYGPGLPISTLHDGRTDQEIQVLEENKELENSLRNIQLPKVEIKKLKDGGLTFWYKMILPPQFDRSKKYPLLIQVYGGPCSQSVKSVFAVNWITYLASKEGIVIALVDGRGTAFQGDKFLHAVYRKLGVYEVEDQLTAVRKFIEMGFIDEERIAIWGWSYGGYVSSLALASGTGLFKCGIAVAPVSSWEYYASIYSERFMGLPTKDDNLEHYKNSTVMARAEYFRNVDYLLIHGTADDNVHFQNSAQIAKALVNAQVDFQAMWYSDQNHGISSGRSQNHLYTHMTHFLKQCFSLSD
recombinant mouse DPPIV (rmDPPIV), sequence (P28843 whole entry): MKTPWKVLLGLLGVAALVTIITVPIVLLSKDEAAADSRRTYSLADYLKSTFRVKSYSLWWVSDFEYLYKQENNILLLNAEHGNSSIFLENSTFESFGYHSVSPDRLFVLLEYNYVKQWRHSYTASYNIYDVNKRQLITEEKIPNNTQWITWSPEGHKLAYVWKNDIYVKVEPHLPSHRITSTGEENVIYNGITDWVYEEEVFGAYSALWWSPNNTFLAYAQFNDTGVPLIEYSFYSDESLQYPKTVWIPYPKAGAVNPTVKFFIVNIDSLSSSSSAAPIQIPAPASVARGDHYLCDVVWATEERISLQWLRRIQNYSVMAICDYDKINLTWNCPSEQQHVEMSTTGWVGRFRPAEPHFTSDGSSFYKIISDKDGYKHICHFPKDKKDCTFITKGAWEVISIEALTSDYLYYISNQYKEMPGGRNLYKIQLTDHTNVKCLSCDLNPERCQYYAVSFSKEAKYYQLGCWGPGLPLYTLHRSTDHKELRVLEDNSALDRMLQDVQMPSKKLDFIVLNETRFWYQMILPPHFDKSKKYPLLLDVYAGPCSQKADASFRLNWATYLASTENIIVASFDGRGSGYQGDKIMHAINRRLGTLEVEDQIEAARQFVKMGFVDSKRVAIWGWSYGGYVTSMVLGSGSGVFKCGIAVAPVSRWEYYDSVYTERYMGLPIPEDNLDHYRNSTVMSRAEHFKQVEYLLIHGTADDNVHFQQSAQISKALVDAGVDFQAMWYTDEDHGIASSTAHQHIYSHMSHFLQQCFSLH

In the case of `C[C@@H](NC(=O)c1ccnc2ccc(-c3ccc(Cl)cc3)cc12)C(=O)N1CC(F)(F)C[C@H]1C#N` [Compound 26], the IC50 (usually the concentration at which inhibition is half-maximal) in data set [1] is > 10 µM; in data set [3] it was < 1 µM. Moreover, the inhibition at 1 µM in data set [2] (Table 3B) was in the range of 25 to 50%.
Take `N#C[C@@H]1CC(F)(F)CN1C(=O)CNC(=O)c1ccnc2ccc(-c3ccc(Cl)cc3)cc12` [Compound 2, (S)-6-(4-chlorophenyl)-N-(2-(2-cyano-4,4-difluoropyrrolidin-1-yl)-2-oxoethyl)quinoline-4-carboxamide]: the half-maximal inhibitory concentration (IC50) is < 1 µM in data set [4], 3 to 10 µM in data set [5] (setting [12]), < 1 µM in data set [3] and < 1 µM in data set [6].
On to `C[C@H](NC(=O)c1ccnc2ccc(-c3ccc(Cl)cc3)cc12)C(=O)N1CC(F)(F)C[C@H]1C#N` [Compound 27], for which the IC50 is > 10 µM in [1] and < 1 µM in [3]. Further, in [2] (Table 3B), the inhibition at 1 µM is < 25%.
Regarding `N#C[C@@H]1CC(F)(F)CN1C(=O)CNC(=O)c1ccnc2ccc(-c3ccc4c(c3)C(=O)NCC4)cc12` [Compound 107], the IC50 in data set [1] is 1 to 10 µM; in [2], < 1 µM; in data set [3] it was < 1 µM. In addition, the inhibition at 1 µM in [2] (Table 3B) is > 50%.
Turning to `C[C@@H](NC(=O)c1ccncc1-c1ccccc1)C(=O)N1CC(F)(F)C[C@H]1C#N` [Compound 126], the IC50 in data set [1], in [7], in data set [2] and in [3] was > 10 µM in each case. The inhibition at 1 µM in data set [2] (Table 3B) was < 25%.
As to `CC(=O)Nc1ccccc1-c1ccc2nccc(C(=O)NCC(=O)N3CC(F)(F)C[C@H]3C#N)c2c1` [Compound 99], in [1], the IC50 was > 10 µM. The inhibition at 1 µM in data set [2] (Table 3B) was > 50%.
Turning to `N#C[C@@H]1CC(F)(F)CN1C(=O)CNC(=O)c1ccnc2ccc(-c3ccc4c(c3)CCC(=O)N4)cc12` [Compound 16, (S)—N-(2-(2-cyano-4,4-difluoropyrrolidin-1-yl)-2-oxoethyl)-2′-oxo-1′,2′,3′,4′-tetrahydro-[6,6′-biquinoline]-4-carboxamide], the IC50 in data set [1] is 1 to 10 µM; in data set [5] (setting [12]) it was > 10 µM; in data set [3], < 1 µM.
In the case of `COc1ccc(-c2ccc3nccc(C(=O)NCC(=O)N4CC(F)(F)C[C@H]4C#N)c3c2)cc1` [Compound 30], the IC50 in data set [1] is 1 to 10 µM; in [5] (setting [12]), 3 to 10 µM; in [3], < 1 µM.
Turning to `Cc1noc(C)c1-c1ccc2nccc(C(=O)NCC(=O)N3CC(F)(F)C[C@H]3C#N)c2c1` [Compound 4, (S)—N-(2-(2-cyano-4,4-difluoropyrrolidin-1-yl)-2-oxoethyl)-6-(3,5-dimethylisoxazol-4-yl)quinoline-4-carboxamide], in data set [1], the IC50 was > 10 µM. Also, in data set [2] (Table 3B), the inhibition at 1 µM was > 50%.
In the case of `N#C[C@@H]1CC(F)(F)CN1C(=O)CNC(=O)c1ccnc2ccc(/C=C/c3ccncc3)cc12` [Compound 19, (S,E)-N-(2-(2-cyano-4,4-difluoropyrrolidin-1-yl)-2-oxoethyl)-6-(2-(pyridin-4-yl)vinyl)quinoline-4-carboxamide], the values for the IC50 in data set [1], in data set [5] (setting [12]) and in data set [3] were 1 to 10 µM, < 3 µM and < 1 µM, respectively.
On to `N#C[C@@H]1CC(F)(F)CN1C(=O)CNC(=O)c1ccnc2ccc(-c3ccc4cc(Cl)ccc4c3)cc12` [Compound 3, (S)-6-(6-chloronaphthalen-2-yl)-N-(2-(2-cyano-4,4-difluoropyrrolidin-1-yl)-2-oxoethyl)quinoline-4-carboxamide], for which the IC50 in data set [1] is 1 to 10 µM; in [5] (setting [12]) it was 3 to 10 µM; in data set [3] it was < 1 µM.
For `CN1C(=O)CCc2cc(-c3ccc4nccc(C(=O)NCC(=O)N5CC(F)(F)C[C@H]5C#N)c4c3)ccc21` [Compound 110], the IC50 in data set [1] was > 10 µM; in data set [5] (setting [12]), < 3 µM; in [3], < 1 µM.
For `N#C[C@@H]1CC(F)(F)CN1C(=O)CNC(=O)c1ccnc2ccc(/C=C/c3ccc4[nH]ncc4c3)cc12` [Compound 112], the IC50 in data set [1], in data set [2] and in data set [3] was < 1 µM in each case. In data set [2] (Table 3B), the inhibition at 1 µM was > 50%.
In the case of `N#C[C@@H]1CC(F)(F)CN1C(=O)CNC(=O)c1ccnc2ccc(-c3ccc4c(c3)CCCN4)cc12` [Compound 113], the figures for the IC50 in data set [1], in data set [2] and in data set [3] were 1 to 10 µM, < 1 µM and < 1 µM, respectively. In [2] (Table 3B), the inhibition at 1 µM is > 50%.
With `CC(C)[C@H](NC(=O)c1ccnc2ccc(-c3ccc(Cl)cc3)cc12)C(=O)N1CC(F)(F)C[C@H]1C#N` [Compound 29], the 50% inhibitory concentration (IC50) was 1 to 10 µM in [1], > 10 µM in data set [7] and > 10 µM in [3]. Also, in data set [2] (Table 3B), the inhibition at 1 µM is < 25%.
Regarding `N#C[C@@H]1CC(F)(F)CN1C(=O)CNC(=O)c1ccnc2ccc(/C=C/c3ccc4c(c3)CCNC4=O)cc12` [Compound 38], the IC50 in [5] (setting [12]) was > 10 µM; in data set [2], < 1 µM; in data set [3] it was < 1 µM. For the same molecule, in data set [2] (Table 3B), the inhibition at 1 µM is > 50%.
As to `N#C[C@@H]1CC(F)(F)CN1C(=O)CNC(=O)c1ccnc2ccc(/C=C/c3cccnc3)cc12` [Compound 20], the IC50 in data set [1] was > 10 µM; in data set [5] (setting [12]) it was 3 to 10 µM; in data set [3], < 1 µM.
As for `N#C[C@@H]1CC(F)(F)CN1C(=O)CNC(=O)c1ccnc2ccc(-c3ccc4c(c3)CCNC4)cc12` [Compound 114], the half-maximal inhibitory concentration (IC50) in [1] was > 10 µM. In addition, the inhibition at 1 µM in [2] (Table 3B) was > 50%.
As for `N#C[C@@H]1CC(F)(F)CN1C(=O)CNC(=O)c1ccnc2ccccc12` [Ref. Comp.], the “rmFAPα (% exo inh @ 1 μM)” value in data set [8] is “+++ (+++ refers to > 50% inhibition at 1 μM test compound)”. In addition, the IC50 in data set [9] and in data set [10] was > 10 µM throughout. In addition, the “rhFAPα (% exo inh @ 1 μM)” value in [2] and in data set [2] (Table 3B) was “+++ (+++ refers to > 50% inhibition at 1 μM test compound)” each time.
Regarding `CN1CCc2cc(-c3ccc4nccc(C(=O)NCC(=O)N5CC(F)(F)C[C@H]5C#N)c4c3)ccc2C1=O` [Compound 111], the IC50 is 1 to 10 µM in data set [1], < 1 µM in data set [2] and < 1 µM in data set [3]. Further, the inhibition at 1 µM in data set [2] (Table 3B) is > 50%.
With `CC(C)[C@H](N)C(=O)N1CCC[C@H]1B(O)O` [Val-boroPro, reference compound], the IC50 in data set [5] (read-out: MV4-11 viability IC50, 48 hours post-treatment, Cell-Titer Glo) was < 3 µM. Further, the “stability of protease inhibitory activity” value in [11] was “rapidly loses protease inhibitory activity”.
For the molecule `CC(C)[C@@H](NC(=O)c1ccnc2ccc(-c3ccc(Cl)cc3)cc12)C(=O)N1CC(F)(F)C[C@H]1C#N` [Compound 28], the IC50 in data set [1], in data set [7] and in [3] was > 10 µM each time. Moreover, the inhibition at 1 µM in [2] (Table 3B) was < 25%.
As to `C[C@H](NC(=O)c1ccncc1-c1ccccc1)C(=O)N1CC(F)(F)C[C@H]1C#N` [Compound 127], the IC50 in [1], in [7], in data set [2] and in data set [3] was > 10 µM in each case. Further, the inhibition at 1 µM in data set [2] (Table 3B) is < 25%.
`N#C[C@@H]1CC(F)(F)CN1C(=O)CNC(=O)c1ccnc2ccc(-c3ccccc3)cc12` [Compound 1, (S)—N-(2-(2-cyano-4,4-difluoropyrrolidin-1-yl)-2-oxoethyl)-6-phenylquinoline-4-carboxamide]: in data set [1], the IC50 was > 10 µM. Besides, the inhibition at 1 µM in data set [2] (Table 3B) was > 50%.
